Results reported in paper PMC5086599 (Viruses, 2016).
Where two headings read alike, the source gives them in different places.

Experiments:
[1] = test system: HIV-1 K103N/Y188F mutant virus in Hela P4/R5 cells; experiment: HIV-1 single cycle replication assay, K103N/Y188F mutant virus; assay type: cell-based
[2] = test system: HIV-1 Y188F mutant virus in Hela P4/R5 cells; experiment: HIV-1 single cycle replication assay, Y188F mutant virus; assay type: cell-based
[3] = test system: HIV-1 Y181F mutant virus in Hela P4/R5 cells; experiment: HIV-1 single cycle replication assay, Y181F mutant virus; assay type: cell-based
[4] = test system: HIV-1 Y181F/Y188F mutant virus in Hela P4/R5 cells; experiment: HIV-1 single cycle replication assay, Y181F/Y188F mutant virus; assay type: cell-based
[5] = test system: HIV-1 K103N mutant virus in Hela P4/R5 cells; experiment: HIV-1 single cycle replication assay, K103N mutant virus; assay type: cell-based
[6] = test system: HIV-1 WT virus (HXB2) in Hela P4/R5 cells; experiment: HIV-1 single cycle replication assay, WT virus; assay type: cell-based; conditions: read-out: EC50 against WT virus
[7] = test system: HIV-1 Y188L mutant virus in Hela P4/R5 cells; experiment: HIV-1 single cycle replication assay, Y188L mutant virus; assay type: cell-based
[8] = test system: HIV-1 K103E mutant virus in Hela P4/R5 cells; experiment: HIV-1 single cycle replication assay, K103E mutant virus; assay type: cell-based
[9] = test system: HIV-1 Y181C mutant virus in Hela P4/R5 cells; experiment: HIV-1 single cycle replication assay, Y181C mutant virus; assay type: cell-based
[10] = test system: HIV-1 K103A mutant virus in Hela P4/R5 cells; experiment: HIV-1 single cycle replication assay, K103A mutant virus; assay type: cell-based
[11] = test system: HIV-1 WT RT (non-bio-RT); parameters: method as in earlier work; conditions: reported previously, read-out: Inhibitory potency IC50 versus WT RT (non-biotinylated); cited from earlier work
[12] = Human immunodeficiency virus 1, read-out: EC50 against K103N/Y188F mutant virus
[13] = Human immunodeficiency virus 1, read-out: EC50 against Y188F mutant virus
[14] = Human immunodeficiency virus 1, read-out: EC50 against Y181F mutant virus
[15] = Human immunodeficiency virus 1, read-out: EC50 against Y181F/Y188F mutant virus
[16] = Human immunodeficiency virus 1, read-out: EC50 against K103N mutant virus
[17] = Human immunodeficiency virus 1, read-out: EC50 against Y188L mutant virus
[18] = Human immunodeficiency virus 1, read-out: EC50 against K103E mutant virus
[19] = Human immunodeficiency virus 1, read-out: EC50 against Y181C mutant virus
[20] = Human immunodeficiency virus 1, read-out: EC50 against K103A mutant virus
[21] = Human immunodeficiency virus 1, HXB2, single-cycle replication, Hela P4/R5 cells, 48 h, mean ± SD

## CC(C)Nc1cccnc1N1CCN(C(=O)c2cc3cc(NS(C)(=O)=O)ccc3[nH]2)CC1 [DLV, delavirdine]
[1]; [12]
  EC50: 1500 ± 43 nM
[2]; [13]
  EC50: 14 ± 4 nM
[3]; [14]
  EC50: 8.6 ± 1.3 nM
[4]; [15]
  EC50: 4.1 ± 0.12 nM
[5]; [16]
  EC50: 2600 ± 346 nM
[6]; Human immunodeficiency virus 1, HXB2, 48 h
  EC50: 26 ± 7 nM
[7]; [17]
  EC50: 913 ± 90 nM
[8]; [18]
  EC50: 64 ± 7 nM
[9]; [19]
  EC50: 1150 ± 301 nM
[10]; [20]
  EC50: 38 ± 12 nM

## O=C1Nc2ccc(Cl)cc2[C@@](C#CC2CC2)(C(F)(F)F)O1 [EFV, efavirenz]
[1]; [12]
  EC50: 40 ± 8.1 nM
[2]; [13]
  EC50: 0.3 ± 0.05 nM
[2]; fold more sensitive than WT virus
  Y188F mutant virus more sensitive to inhibition than WT virus: ~ 4 fold
[3]; [14]
  EC50: 0.5 ± 0.07 nM
[4]; [15]
  EC50: 0.4 ± 0.1 nM
[5]; [16]
  EC50: 69 ± 5.7 nM
[6]; [21]
  EC50: 1.2 nM
[7]; [17]
  EC50: 639 ± 63 nM
[8]; [18]
  EC50: 0.9 ± 0.3 nM
[9]; [19]
  EC50: 1.4 ± 0.1 nM
[10]; [20]
  EC50: 2 ± 0.2 nM
[11]
  IC50: 0.42 nM

## Cc1ccnc2c1NC(=O)c1cccnc1N2C1CC1 [NVP, nevirapine]
[1]; Human immunodeficiency virus 1, single-cycle replication, Hela P4/R5 cells, mean ± SD, read-out: EC50 against K103N/Y188F mutant virus
  EC50: 14500 nM
[2]; Human immunodeficiency virus 1, single-cycle replication, Hela P4/R5 cells, mean ± SD, read-out: EC50 against Y188F mutant virus
  EC50: 62 ± 11 nM
[3]; Human immunodeficiency virus 1, single-cycle replication, Hela P4/R5 cells, mean ± SD, read-out: EC50 against Y181F mutant virus
  EC50: 37 ± 7 nM
[4]; Human immunodeficiency virus 1, single-cycle replication, Hela P4/R5 cells, mean ± SD, read-out: EC50 against Y181F/Y188F mutant virus
  EC50: 34 ± 2.5 nM
[5]; Human immunodeficiency virus 1, single-cycle replication, Hela P4/R5 cells, mean ± SD, read-out: EC50 against K103N mutant virus
  EC50: 5080 ± 1690 nM
[6]; [21]
  EC50: 95 ± 6 nM
[7]; Human immunodeficiency virus 1, single-cycle replication, Hela P4/R5 cells, mean ± SD, read-out: EC50 against Y188L mutant virus
  EC50: > 25000 nM
[8]; Human immunodeficiency virus 1, single-cycle replication, Hela P4/R5 cells, mean ± SD, read-out: EC50 against K103E mutant virus
  EC50: 65 ± 27 nM
[9]; Human immunodeficiency virus 1, single-cycle replication, Hela P4/R5 cells, mean ± SD, read-out: EC50 against Y181C mutant virus
  EC50: 2270 ± 197 nM
[10]; Human immunodeficiency virus 1, single-cycle replication, Hela P4/R5 cells, mean ± SD, read-out: EC50 against K103A mutant virus
  EC50: 216 ± 51 nM
[11]
  IC50: 137 nM
